Laboratory results published in patent US10500209B2, “Quinazolinones as bromodomain inhibitors” (Zenith Epigenetics Ltd., priority 2013, dated 2019).

Legend:
[1] = molecular target: T1, Brd4 bromodomain 1 (BRD4(1)) (Homo sapiens, UniProt O60885); assay: Inhibition of tetra-acetylated histone H4 binding to BET bromodomains (TR-FRET); design: key: Active: Compounds with an IC50 value less than 30 μM were deemed to be active.; Not Active: Compounds with an IC50 value less than 30 μM were deemed to be active; conditions: first bromodomain of Brd4, tetra-acetylated histone H4 peptide
T1 construct: made in house; host or cells: E. coli BL21(DE3)
Method: Proteins were cloned and overexpressed with a N-terminal 6×His tag, then purified by nickel affinity followed by size exclusion chromatography. Briefly, E. coli BL21(DE3) cells were transformed with a recombinant expression vector encoding N-terminally Nickel affinity tagged bromodomains from Brd2, Brd3, Brd4. Cell cultures were incubated at 37° C. with shaking to the appropriate density and induced overnight with IPTG. The supernatant of lysed cells was loaded onto Ni-IDA column for purification. Eluted protein is pooled, concentrated and further purified by size exclusion chromatography. Fractions representing monomeric protein were pooled, concentrated, aliquoted, and frozen at −80° C. for use in subsequent experiments.
Binding of tetra-acetylated histone H4 and BET bromodomains was confirmed by a Time Resolved Fluorescence Resonance Energy Transfer (TR-FRET) method. N-terminally His-tagged bromodomains (200 nM) and biotinylated tetra-acetylated histone H4 peptide (25-50 nM, Millipore) were incubated in the presence of Europium Cryptate-labeled streptavidin (Cisbio Cat. #610SAKLB) and XL665-labeled monoclonal anti-His antibody (Cisbio Cat. #61HISXLB) in a white 96 well microtiter plate (Greiner). For inhibition assays, serially diluted test compound was added to these reactions in a 0.2% final concentration of DMSO. Final buffer concentrations were 30 mM HEPES pH 7.4, 30 mM NaCl, 0.3 mM CHAPS, 20 mM phosphate pH 7.0, 320 mM KF, 0.08% BSA). After a 2-h incubation at room temperature, the fluorescence by FRET was measured at 665 and 620 nm by a SynergyH4 plate reader (Biotek). The binding inhibitory activity was shown by a decrease in 665 nm fluorescence relative to 620 nm. IC50 values were determined from a dose response curve.

human AML MV-4-11 cells = assay: Inhibition of cell proliferation in cancer cell lines (CellTiter Aqueous One); assay type: cell-based; design: key: Active: Compounds with an IC50 value less than 30 μM were deemed to be active.; Not Active: Compounds with an IC50 value less than 30 μM were deemed to be active; conditions: 72 h
Method: MV4-11 cells: 96-well plates were seeded with 5×10^4 cells per well of exponentially growing human AML MV-4-11 (CRL-9591) cells and immediately treated with two-fold dilutions of test compounds, ranging from 30 μM to 0.2 μM. Triplicate wells were used for each concentration, as well as a media only and three DMSO control wells. The cells and compounds were incubated at 37° C., 5% CO2 for 72 h before adding 20 μL of the CellTiter Aqueous One Solution (Promega) to each well and incubating at 37° C., 5% CO2 for an additional 3-4 h. The absorbance was taken at 490 nm in a spectrophotometer and the percentage of proliferation relative to DMSO-treated cells was calculated after correction from the blank well. IC50 were calculated using the GraphPad Prism software.

c-myc in MV4-11 cells = assay: Inhibition of c-myc expression in cancer cell lines (mRNA, real-time PCR); assay type: cell-based, Human; design: key: Active: Compounds with an IC50 value less than 30 μM were deemed to be active.; Not Active: Compounds with an IC50 value less than 30 μM were deemed to be active; conditions: 3 h
Method: MV4-11 cells (2.5×10^4 cells) were plated in 96 well U-bottom plates with test compound or DMSO (0.1%), and incubated for 3 h at 37° C. Cells were then harvested by centrifugation, lysed, and mRNA was isolated using the mRNA catcher plus kit (Invitrogen). Reverse transcription of the mRNA and duplex amplification of the c-myc and cyclophilin cDNAs was performed using the RNA Ultrasense kit (Invitrogen) and a ViiA7 real-time PCR machine (Applied Biosystems). IC50 values were determined from a dose response curve.

Compound | FRET activity BRD4(1) [1] | Cell Proliferation activity (IC50 < 30 μM) (human AML MV-4-11 cells) | melting point [°C] | c-myc activity (IC50 < 30 μM) (c-myc in MV4-11 cells)
COc1ccc(-c2nc3cc(OC)cc(OC)c3c(=O)[nH]2)c(NC2CCOCC2)c1 [Example 9, 5,7-dimethoxy-2-(4-Methoxy-2-((tetrahydro-2H-pyran-4-yl)amino)-phenyl)quinazolin-4(3H)-one] | Active | Not Active | 286 to 287 | 
COc1ccc(-c2nc3cc(OC)cc(OC)c3c(=O)[nH]2)c(NCCCN2CCOCC2)c1 [Example 13, 5,7-Dimethoxy-2-(4-methoxy-2-((3-morpholinopropyl)amino)-phenyl)quinazolin-4(3H)-one] | Active |  | 234 to 235 | 
COc1ccc(-c2nc3cc(OC)cc(OC)c3c(=O)[nH]2)c(NCCN2CCOCC2)c1 [Example 14, 5,7-Dimethoxy-2-(4-methoxy-2-((2-morpholinoethyl)amino)phenyl)-quinazolin-4(3H)-one] | Active | Not Active | 239 to 240 | 
COc1ccc(-c2nc3cc(OC)cc(OC)c3c(=O)[nH]2)c(NCCCN2CCCC2)c1 [Example 15, 5,7-Dimethoxy-2-(4-methoxy-2-((3-(pyrrolidin-1-yl)propyl)amino)phenyl)quinazolin-4(3H)-one] | Active | Active |  | Active
COc1ccc(-c2nc3cc(OC)cc(OC)c3c(=O)[nH]2)c(NCC2CCN(C(C)C)C2)c1 (stereo not shown) [Example 16, 2-(2-(((1-Isopropylpyrrolidin-3-yl)methyl)amino)-4-methoxyphenyl)-5,7-dimethoxyquinazolin-4(3H)-one] | Active | Active | 228 to 230 | Active
COc1ccc(-c2nc3cc(OC)cc(OC)c3c(=O)[nH]2)c(NCC2CCCN2C(C)C)c1 (stereo not shown) [Example 17, 2-(2-(((1-Isopropylpyrrolidin-2-yl)methyl)amino)-4-methoxyphenyl)-5,7-dimethoxyquinazolin-4(3H)-one] | Active |  | 207 to 209 | Active
COc1ccc(-c2nc3cc(OC)cc(OC)c3c(=O)[nH]2)c([S+]([O-])C2CCN(C)CC2)c1 (stereo not shown) [Example 23, 5,7-Dimethoxy-2-[4-methoxy-2-(1-methylpiperidin-4-ylsulfinyl)phenyl]quinazolin-4(3H)-one] | Active | Not Active | 263 to 265 | 
COc1ccc(-c2nc3cc(OC)cc(OC)c3c(=O)[nH]2)c(NCCN2CCNCC2)c1 [Example 24, 5,7-Dimethoxy-2-(4-methoxy-2-((2-(piperazin-1-yl)ethyl)amino)phenyl)quinazolin-4(3H)-one] | Active |  | 210 to 212 | 
COc1cnc(-c2nc3cc(OC)cc(OC)c3c(=O)[nH]2)c(NC2CCN(C(C)C)CC2)c1 [Example 30, 2-(3-((1-Isopropylpiperidin-4-yl)amino)-5-methoxypyridin-2-yl)-5,7-dimethoxyquinazolin-4(3H)-one] | Active | Active | 207 to 208 | 
COc1cc(OC)c2c(=O)[nH]c(-c3ccc(Cl)cc3NC3CCN(C(=O)C(C)C)CC3)nc2c1 [Example 34, 2-(4-Chloro-2-((1-isobutyrylpiperidin-4-yl)amino)phenyl)-5,7-dimethoxyquinazolin-4(3H)-one] | Active |  | 281 to 283 | 
COc1cnc(-c2nc3cc(OC)cc(OC)c3c(=O)[nH]2)c(NC2CCN(C)CC2)c1 [Example 40, 5,7-Dimethoxy-2-(5-methoxy-3-((1-methylpiperidin-4-yl)amino)pyridin-2-yl)quinazolin-4(3H)-one] | Active |  | 191 to 193 | 
COc1cc(OC)c2c(=O)[nH]c(-c3ncccc3NCC3CCN(C)C3)nc2c1 (stereo not shown) [Example 41, 5,7-Dimethoxy-2-(3-(((1-methylpyrrolidin-3-yl)methyl)amino)pyridin-2-yl)quinazolin-4(3H)-one] | Active |  | 157 to 159 | 
COc1cc(OC)c2c(=O)[nH]c(-c3ncccc3NCCCNC(C)C)nc2c1 [Example 43, 2-(3-((3-(Isopropylamino)propyl)amino)pyridin-2-yl)-5,7-dimethoxyquinazolin-4(3H)-one] | Active |  | 121 to 122 | 
COc1cc(OC)c2c(=O)[nH]c(-c3ncccc3NC3CCN(C)CC3)nc2c1 [Example 44, 5,7-Dimethoxy-2-(3-((1-methylpiperidin-4-yl)amino)pyridine-2-yl)quinazolin-4(3H)-one] | Active |  | 186 to 188 | 
COc1cc(OC)c2c(=O)[nH]c(-c3ncccc3NCCN3CCOCC3)nc2c1 [Example 49, 5,7-Dimethoxy-2-(3-((2-morpholinoethyl)amino)pyridine-2-yl)quinazolin-4(3H)-one] | Active |  | 168 to 170 | 
COc1cc(OC)c2c(=O)[nH]c(-c3ncccc3N[C@H]3CC[C@@H](C(=O)N(C)C)CC3)nc2c1 [Example 53, cis-4-((2-(5,7-Dimethoxy-4-oxo-3,4-dihydroquinazolin-2-yl)pyridin-3-yl)amino)-N,N-dimethylcyclohexane-1-carboxamide] | Active |  | 276 to 278 | 
COc1cc(OC)c2c(=O)[nH]c(-c3ncccc3NC3CCN(C(N)=O)CC3)nc2c1 [Example 54, 4-((2-(5,7-Dimethoxy-4-oxo-3,4-dihydroquinazolin-2-yl)pyridin-3-yl)amino)piperidine-1-carboxamide] | Active |  | 265 to 266 | 
COc1cncc2nc(-c3ncccc3NC3CCN(C(C)C)CC3)[nH]c(=O)c12 [Example 58, 2-(3-((1-Isopropylpiperidin-4-yl)amino)pyridin-2-yl)-5-methoxypyrido[3,4-d]pyrimidin-4(3H)-one] | Active |  | 237 to 238 | 
COc1cc(OC)c2c(=O)[nH]c(-c3ncccc3N[C@H]3CC[C@@H](C(=O)NC(C)C)CC3)nc2c1 [Example 63, cis-4-((2-(5,7-Dimethoxy-4-oxo-3,4-dihydroquinazolin-2-yl)pyridin-3-yl)amino)-N-isopropylcyclohexane-1-carboxamide] | Active | Not Active | 256 to 257 | 
COc1cc(OC)c2c(=O)[nH]c(-c3ncccc3NC3CCN(C(C)(C)CO)CC3)nc2c1 [Example 68, 2-(3-((1-(1-Hydroxy-2-methylpropan-2-yl)piperidin-4-yl)amino)pyridin-2-yl)-5,7-dimethoxyquinazolin-4(3H)-one] | Active |  | 223 to 225 | 
